Measured values published in patent publication US20050079526A1, “Methods and apparatuses for characterizing refolding and aggregation of biological molecules” (Affinium Pharmaceuticals, Inc., priority 2002, published 2005).

Tests used:
the protein = test: extent of unfolding of a protein measured by fluorescence versus time after temperature jump to 55° C. (rate of unfolding ku); assay type: binding; conditions: fluorescence versus time at 55° C.; 5% ethanol; 10% glycerol; AND^+; compared with control solution; FIG. 6
Method: Multiple identical protein solutions were arranged in two-dimensional arrays of reservoirs which were incubated at different temperatures. These samples were alternatively illuminated with UV light and monochromatic red light. The fluorescence emitted and the light scattered at 90° were measured from the top of the arrangement. The fluorescence emitted and the light scattered intensity data were collected at intervals of time of incubation for all the temperatures simultaneously. In another example, the protein was incubated in 5% ethanol; 10% glycerol, AND^+ or a control solution and the extent of unfolding was measured at 55° C. A plots of fluorescence at the given temperature versus time was automatically built for all the samples, and the rate of unfolding ku was obtained from the fitted exponential grow portion of the curves for the proteins jumped to 55° C.

[1] = tested on: refolded Gaf domain of PDE10; test: thermal aggregation (light scattering) of refolded protein, temperature of aggregation (Tag) with ligands; assay type: binding; conditions: refolded Gaf domain of PDE10 in presence of ligand; light scattering versus temperature; FIG. 10
Method: The fluorescence emitted and the light scattered at 90° were measured from the top of the arrangement. The fluorescence emitted and the light scattered intensity data were collected at intervals of time of incubation for all the temperatures simultaneously.

NC(=O)c1ccc[n+]([C@@H]2O[C@H](COP(=O)([O-])OP(=O)(O)OC[C@H]3O[C@@H](n4cnc5c(N)ncnc54)[C@H](O)[C@@H]3O)[C@@H](O)[C@H]2O)c1 [AND^+]
effect on the stability of the protein (unfolding, ku) (the protein): strongest stabilizing effect

OCC(O)CO [Glycerol, glycerol]
effect on the stability of the protein (unfolding, ku) (the protein): stabilizing effect

Nc1nc2c(ncn2[C@@H]2O[C@@H]3COP(=O)(O)O[C@H]3[C@H]2O)c(=O)[nH]1 [cGMP]
change of temperature of aggregation (Tag) [1]: increased the Tag

CCO [ethanol]
effect on the stability of the protein (unfolding, ku) (the protein): destabilizing effect or no effect at all
